Consider three compounds from patent US8519136B2, “Aminopyridine derivatives having aurora a selective inhibitory action” (MSD K.K., priority 2008, dated 2013).

Where a name gives a salt, the structure may show the parent alone. A value given as a limit tells only on which side of the number the result lay.

The target in this experiment is T1, GST-tagged human Aurora B(AurB)/His-tagged human INCENP complex proteins (Homo sapiens, UniProt Q96GD4).
T1 construct: GST; purchased Carna Biosciences, Inc
T1 sequence (Q96GD4 whole entry): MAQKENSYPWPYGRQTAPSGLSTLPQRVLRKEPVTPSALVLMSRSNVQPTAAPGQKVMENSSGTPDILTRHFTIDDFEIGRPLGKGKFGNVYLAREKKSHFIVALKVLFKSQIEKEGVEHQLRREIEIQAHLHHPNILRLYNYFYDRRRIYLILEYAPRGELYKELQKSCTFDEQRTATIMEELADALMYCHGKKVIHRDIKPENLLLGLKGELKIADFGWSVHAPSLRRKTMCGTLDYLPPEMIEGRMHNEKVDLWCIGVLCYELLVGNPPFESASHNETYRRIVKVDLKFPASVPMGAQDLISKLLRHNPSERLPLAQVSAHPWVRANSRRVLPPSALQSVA
T1 sequence (Q9NQS7 803-916 partner limits assumed): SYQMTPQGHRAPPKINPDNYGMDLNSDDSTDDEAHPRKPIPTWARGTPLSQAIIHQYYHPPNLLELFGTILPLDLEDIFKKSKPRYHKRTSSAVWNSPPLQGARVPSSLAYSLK
Description: Aurora B inhibitory activity (Method A, IMAP kit). The class given is biochemical. The following applies: 40 μM ATP, 25° C., 45 minutes. How it is done:
An assay development kit for IMAP (registered trademark) (Aurora B), purchased from Carna Biosciences, Inc., was used for phosphorylation reaction, and the phosphorylation of a substrate was detected using the IMAP technology. The assay development kit used is comprised of an assay buffer, GST-tagged human Aurora B(AurB)/His-tagged human INCENP complex proteins (amino acid sequence: 803-916, AAU04398.1), and an ATP/substrate solution. Using the same, the phosphorylation reaction was conducted in accordance with a partially revised protocol attached to the kit, and then the phosphorylation of the substrate was detected using the IMAP technology.
For the phosphorylation reaction, 384 well plate was used, and the reaction volume was 10 μl/well. The composition of the reaction buffer (assay buffer) is comprised of 20 mM of HEPES buffer (pH 7.4), 0.01% Tween-20, and 2 mM of dithiothreitol (DTT). Thereto, AurB/INCENP complex protein, 100 nM of the substrate, and 40 μM of ATP, and 1 mM of magnesium salt were added, and then the reaction was conducted at 25° C. for 45 minutes. Thereafter, in order to terminate and detect the reaction, 30 μl of the IMAP (registered trademark) binding reagent (IMAP Progressive Binding Reagent, R7284) that had been diluted (1:400) in the 1×IMAP binding buffer A (IMAP Progressive Binding Buffer A, 5× stock, R7282) was added to each well. The solution stood still for 60 minutes in the dark, and then fluorescence polarization was measured using a high-end microplate reader (excitation wavelength: 485 nm; emission wavelength: 520 nm).
The compound to be tested was added to the reaction system such that a dilution series of the compound in DMSO was prepared, and then 0.5 μL of this solution was added for the testing to each well. Each control well was provided by adding 0.5 μL of DMSO to the well in place of the DMSO solution containing the compound to be tested.
As usually defined, the IC50 is the point on the concentration scale where inhibition reaches its midpoint. Higher therefore signals lower potency. Take `Cl.O=C(c1cccc(Cl)c1F)N1CCC(O)(Cc2cccc(Nc3cc[nH]n3)n2)CC1` [Example 2, 1-(3-chloro-2-fluorobenzoyl)-4-((6-(1H-pyrazol-3-ylamino)pyridin-2-yl)methyl)piperidin-4-ol hydrochloride]: the half-inhibitory concentration (IC50) worked out at 0.369 µM.

In the case of `O=c1[nH]nc(C2(Cc3cccc(Nc4cc[nH]n4)n3)CCN(S(=O)(=O)c3ccccc3C(F)(F)F)CC2)o1` [Example 14, 5-(4-((6-(1H-pyrazol-3-ylamino)pyridin-2-yl)methyl)-1-((2-(trifluoromethyl)phenyl)sulfonyl)piperidin-4-yl)-1,3,4-oxadiazol-2(3H)-one trifluoroacetate], the IC50 was over 1 µM.

On to `O=c1[nH]nc(C2(Cc3cccc(Nc4cc[nH]n4)n3)CCN(C(c3cccc(C(F)(F)F)c3)C(F)(F)F)CC2)o1` (stereo not drawn) [Example 19, 5-(4-((6-(1H-pyrazol-3-ylamino)pyridin-2-yl)methyl)-1-(2,2,2-trifluoro-1-(3-(trifluoromethyl)phenyl)ethyl)piperidin-4-yl)-1,3,4-oxadiazol-2(3H)-one trifluoroacetate], for which the IC50 is over 1 µM.
